Assays:
P450 3A4 [1] = target: T1, P450 3A4 (Homo sapiens, UniProt P08684); settings: equimolar inhibitor (50 nM), 160 μM 7-OBz quinoline added, 23 °C
P450 3A4 [2] = target: T1, P450 3A4; assay: Inhibitor-binding kinetics (stopped-flow absorbance, SVD analysis); settings: P450 3A4 2 μM
Text: Equal volumes of buffered solutions of P450 3A4 and ligand were mixed, with a nominal dead time of 2 ms. Data were collected in the Show Pre-trigger Mode, with a short amount of data from the previous run (completed reaction) shown prior to mixing. […] From the accumulated spectra from each individual experiment (5–10 shots per concentration), generally the A420 data were subtracted from the A390 data points or A390 data were subtracted from the A425 data points, and the difference (ΔA390 − A420 or ΔA425 − A390 versus time) traces were averaged using the OLIS GlobalWorks software and fit to first-order fits (or used in SVD analysis; Figs. 9 and S7–S10).

P450 3A4 [3] = target: T1, P450 3A4; settings: P450 enzyme system + NADPH, UPLC-MS
P450 3A4 [4] = target: T2, P450 3A4 (Homo sapiens, UniProt P08684, form not given); assay: in vitro; settings: P450 3A4 reconstituted with cholate/phospholipid mixture, probe 7-OBz quinoline (7-benzoyl quinoline) O-debenzylation, 20 μM
T2 sequence (P08684 13-503): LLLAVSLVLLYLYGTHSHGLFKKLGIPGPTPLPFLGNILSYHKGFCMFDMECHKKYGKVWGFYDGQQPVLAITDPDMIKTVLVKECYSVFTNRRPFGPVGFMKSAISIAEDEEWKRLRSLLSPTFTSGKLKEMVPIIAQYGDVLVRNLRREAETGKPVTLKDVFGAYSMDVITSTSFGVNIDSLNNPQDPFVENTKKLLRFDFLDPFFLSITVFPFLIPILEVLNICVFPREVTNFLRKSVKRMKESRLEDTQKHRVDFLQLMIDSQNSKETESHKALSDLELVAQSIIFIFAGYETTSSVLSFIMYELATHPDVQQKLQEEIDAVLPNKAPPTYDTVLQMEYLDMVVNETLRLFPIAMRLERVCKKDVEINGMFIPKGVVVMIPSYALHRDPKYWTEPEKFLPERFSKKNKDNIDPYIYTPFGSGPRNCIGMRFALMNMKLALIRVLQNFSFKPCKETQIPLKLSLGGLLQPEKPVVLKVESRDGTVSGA
T2 sequence (P00388 2-678 partner): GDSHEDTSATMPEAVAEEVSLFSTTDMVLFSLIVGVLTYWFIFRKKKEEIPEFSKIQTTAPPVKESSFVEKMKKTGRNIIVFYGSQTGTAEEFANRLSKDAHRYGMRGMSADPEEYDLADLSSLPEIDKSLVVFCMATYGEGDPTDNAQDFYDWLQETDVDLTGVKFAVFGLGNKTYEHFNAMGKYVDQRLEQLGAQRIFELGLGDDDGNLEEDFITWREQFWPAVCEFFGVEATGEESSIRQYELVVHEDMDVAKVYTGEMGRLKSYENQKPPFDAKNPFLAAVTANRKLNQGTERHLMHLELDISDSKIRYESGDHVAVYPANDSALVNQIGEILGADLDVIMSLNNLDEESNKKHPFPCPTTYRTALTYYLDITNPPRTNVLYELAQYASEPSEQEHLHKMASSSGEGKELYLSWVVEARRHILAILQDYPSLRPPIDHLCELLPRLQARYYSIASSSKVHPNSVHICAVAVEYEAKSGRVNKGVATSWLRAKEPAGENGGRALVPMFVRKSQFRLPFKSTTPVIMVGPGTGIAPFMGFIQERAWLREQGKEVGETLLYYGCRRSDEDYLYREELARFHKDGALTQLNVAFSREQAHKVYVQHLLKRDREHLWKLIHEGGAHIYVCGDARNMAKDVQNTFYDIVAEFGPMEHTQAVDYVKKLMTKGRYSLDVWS
T2 sequence (P00167 2-134 partner): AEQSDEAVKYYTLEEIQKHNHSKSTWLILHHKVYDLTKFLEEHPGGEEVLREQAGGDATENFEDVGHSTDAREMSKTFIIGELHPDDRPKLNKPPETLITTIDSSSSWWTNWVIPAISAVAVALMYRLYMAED

P450 3A4 [5] = target: T2, P450 3A4; assay: in vitro; settings: P450 3A4 reconstituted with cholate/phospholipid mixture, probe testosterone 6β-hydroxylation, 25 μM
P450 3A4 [6] = target: T1, P450 3A4; settings: inhibitor 0.02 μM
Experimental: Assays for the kinetics of inhibition were done using an OLIS RSM-1000 stopped-flow instrument (On-Line Instrument Systems) in the fluorescence mode (150 W xenon lamp), with the excitation monochromator set at 410 nm and using a >515 nm Oriel long-pass filter (Newport) with the sample photomultiplier tube. The slit widths were 6.32 mm, and the sample and reference voltages of the photomultiplier tubes were 700 and 350 V, respectively. Reactions were done at 23 °C for 180 s.
One syringe contained the P450 3A4 system (100 nM P450 3A4, 200 nM POR, and 100 nM cytochrome b5) along with the other components of a “5×” mixture (potassium Hepes (pH 7.4), reduced glutathione, sodium cholate, and phospholipid mixture) combined with the 5× buffer mixture (Hepes, MgCl2, and reduced glutathione) ([42]), plus NADPH and the inhibitor compound. Fluorescence data were collected for 3 min (at 23 °C) and moved to Excel, Prism, and KinTek Explorer programs for analysis.

[7] = inhibitor 15 μM, three-species 1→2→3 model

T1 sequence (P08684 13-503): as the sequence (P08684 13-503) above
T1 sequence (P00388 2-678 partner): as the sequence (P00388 2-678 partner) above
T1 sequence (P00167 2-134 partner): as the sequence (P00167 2-134 partner) above

| SMILES | lag phase in recovery of catalytic activity (P450 3A4 [1]) | Spectral binding (SVD) k1 (P450 3A4 [2]; [7]) | Spectral binding (SVD) k2 (P450 3A4 [2]; [7]) | kobs, initial rate of binding (ΔA390 − A425) (P450 3A4 [2]; ligand 4 μM final) | substrate for P450 3A4 (product formation) (P450 3A4 [3]) | IC50 at 8 min (P450 3A4 [4]) | IC50 at 15 min (P450 3A4 [5]) | Onset of 7-OBz quinoline O-debenzylation inhibition, Rate (k1) (P450 3A4 [6]) |
| --- | --- | --- | --- | --- | --- | --- | --- | --- |
| Clc1ccccc1C(c1ccccc1)(c1ccccc1)n1ccnc1 [Clotrimazole] | ~45 s | 0.092 ± 0.01 s | 0.016 ± 0.005 s⁻¹ | 235 s⁻¹ | is a substrate as well as an inhibitor of P450 3A4 | 110 nM | 110 nM | 0.39 ± 0.03 s⁻¹ |
| CCC(C)n1ncn(-c2ccc(N3CCN(c4ccc(OCC5COC(Cn6cncn6)(c6ccc(Cl)cc6Cl)O5)cc4)CC3)cc2)c1=O (stereo not shown) [Itraconazole] |  |  |  |  |  | 2020 nM | 1490 nM |  |

Reference: publication PMC7948456, “Kinetics of cytochrome P450 3A4 inhibition by heterocyclic drugs defines a general sequential multistep binding process” (The Journal of Biological Chemistry, 2020)
